Values joined by “and” are separate entries in the source; they are usually repeats but may differ in a detail not shown here. Equal entries are not always repeated.
Experiments:
Format in all cases: cell-based, human
[1] = tested on: senescent IMR90 ER:RAS cells (4-OHT-induced); test: Nuclei count (Hoechst, high content imaging) senolytic assay, oncogene-induced senescence (OIS) model, senescent cells; conditions: for Mean % Cell Survival: mean n=3 (Fig 3C)
Summary of the method: (§1)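 Senescence in IMR90 ER:RAS fibroblasts induced with 100 nM 4-OHT; non-senescent and senescent cells treated 72 h with compounds, 10-point […] range 10 μM–10 nM, triplicate. Cells fixed, permeabilised, Hoechst-stained; total nuclei per well counted by high-content imaging versus untreated controls as cell-death readout.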

[2] = tested on: non-senescent control IMR90 ER:RAS cells; test: Nuclei count (Hoechst, high content imaging) senolytic assay, OIS model, non-senescent control cells; conditions: for Mean % Cell Survival: mean n=3 (Fig 3C)
Summary of the method: as §1

[3] = tested on: senescent A549 cells (etoposide-induced); test: Nuclei count senolytic assay, therapy-induced senescence (TIS) model, senescent cells; conditions: Senescent cells, mean
Summary of the method: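 A549 cells were made senescent with 100 μM etoposide for 48 h, then kept three days in normal media; non-senescent A549 served as controls. Compounds were dosed as a 10-point […] series (10 μM to 10 nM final) for 72 h in triplicate. Hoechst-stained nuclei were counted by imaging after fixation.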

## C=Cc1c(C)c2cc3nc(cc4[nH]c(cc5nc(cc1[nH]2)C(C)=C5CCC(=O)O)c(CCC(=O)OC)c4C)[C@@]1(C)C3=CC=C(C(=O)OC)[C@H]1C(=O)OC [Verteporfin, verteporfin, reference compound]
[1]; Senescent cells, log (dose) [M] -5, individual replicates, SUP FIG 4C
  % Cell Survival: 93.9435% and 91.1111% and 111.269%
[1]; Senescent cells, log (dose) [M] -5.33, individual replicates, SUP FIG 4C
  % Cell Survival: 81.5612% and 99.085% and 87.8238%
[1]; Senescent cells, log (dose) [M] -5.66, individual replicates, SUP FIG 4C
  % Cell Survival: 114.536% and 91.2418% and 98.8342%
[1]; Senescent cells, log (dose) [M] -6, individual replicates, SUP FIG 4C
  % Cell Survival: 68.7752% and 100.915% and 109.974%
[1]; Senescent cells, log (dose) [M] -6.33, individual replicates, SUP FIG 4C
  % Cell Survival: 85.8681% and 55.5556% and 108.549%
[1]; Senescent cells, log (dose) [M] -6.66, individual replicates, SUP FIG 4C
  % Cell Survival: 84.253% and 107.32% and 95.2073%
[1]; Senescent cells, log (dose) [M] -7, individual replicates, SUP FIG 4C
  % Cell Survival: 86.541% and 87.8431% and 90.544%
[1]; Senescent cells, log (dose) [M] -7.33, individual replicates, SUP FIG 4C
  % Cell Survival: 95.5585% and 120.915% and 93.9119%
[1]; Senescent cells, log (dose) [M] -7.66, individual replicates, SUP FIG 4C
  % Cell Survival: 98.3849% and 123.268% and 87.8238%
[1]; Senescent cells, log (dose) [M] -8, individual replicates, SUP FIG 4C
  % Cell Survival: 86.541% and 113.464% and 76.6839%
[1]; Senescent, log (dose) [M] -5, 72 h
  Mean % Cell Survival: 98.7747%
[1]; Senescent, log (dose) [M] -5.33, 72 h
  Mean % Cell Survival: 89.49%
[1]; Senescent, log (dose) [M] -5.66, 72 h
  Mean % Cell Survival: 101.537%
[1]; Senescent, log (dose) [M] -6, 72 h
  Mean % Cell Survival: 93.2215%
[1]; Senescent, log (dose) [M] -6.33, 72 h
  Mean % Cell Survival: 83.3243%
[1]; Senescent, log (dose) [M] -6.66, 72 h
  Mean % Cell Survival: 95.5935%
[1]; Senescent, log (dose) [M] -7, 72 h
  Mean % Cell Survival: 88.3094%
[1]; Senescent, log (dose) [M] -7.33, 72 h
  Mean % Cell Survival: 103.462%
[1]; Senescent, log (dose) [M] -7.66, 72 h
  Mean % Cell Survival: 103.159%
[1]; Senescent, log (dose) [M] -8, 72 h
  Mean % Cell Survival: 92.2297%
[1]; Senescent, log (dose) [M] -5
  % Cell Survival: 113.825% and 103.66% and 137.931%
[1]; Senescent, log (dose) [M] -5.33
  % Cell Survival: 79.9635% and 100.131% and 115.557%
[1]; Senescent, log (dose) [M] -5.66
  % Cell Survival: 102.923% and 109.085% and 134.403%
[1]; Senescent, log (dose) [M] -6
  % Cell Survival: 99.1474% and 91.7647% and 157.418%
[1]; Senescent, log (dose) [M] -6.33
  % Cell Survival: 98.8429% and 106.993% and 136.808%
[1]; Senescent, log (dose) [M] -6.66
  % Cell Survival: 92.57% and 116.536% and 113.873%
[1]; Senescent, log (dose) [M] -7
  % Cell Survival: 103.898% and 73.5294% and 123.657%
[1]; Senescent, log (dose) [M] -7.33
  % Cell Survival: 62.363% and 86.2092% and 118.605%
[1]; Senescent, log (dose) [M] -7.66
  % Cell Survival: 100.061% and 91.4379% and 129.27%
[1]; Senescent, log (dose) [M] -8
  % Cell Survival: 96.6504% and 87.3856% and 116.84%
[2]; Control cells, log (dose) [M] -5, individual replicates, SUP FIG 4C
  % Cell Survival: 101.159% and 129.718% and 89.9175%
[2]; Control cells, log (dose) [M] -5.33, individual replicates, SUP FIG 4C
  % Cell Survival: 94.2029% and 128.701% and 95.0504%
[2]; Control cells, log (dose) [M] -5.66, individual replicates, SUP FIG 4C
  % Cell Survival: 94.8792% and 127.571% and 91.1091%
[2]; Control cells, log (dose) [M] -6, individual replicates, SUP FIG 4C
  % Cell Survival: 109.082% and 120% and 89.2759%
[2]; Control cells, log (dose) [M] -6.33, individual replicates, SUP FIG 4C
  % Cell Survival: 132.367% and 79.661% and 117.324%
[2]; Control cells, log (dose) [M] -6.66, individual replicates, SUP FIG 4C
  % Cell Survival: 84.5411% and 110.056% and 78.5518%
[2]; Control cells, log (dose) [M] -7, individual replicates, SUP FIG 4C
  % Cell Survival: 102.222% and 109.492% and 85.1512%
[2]; Control cells, log (dose) [M] -7.33, individual replicates, SUP FIG 4C
  % Cell Survival: 97.1981% and 115.141% and 84.143%
[2]; Control cells, log (dose) [M] -7.66, individual replicates, SUP FIG 4C
  % Cell Survival: 102.705% and 116.158% and 105.408%
[2]; Control cells, log (dose) [M] -8, individual replicates, SUP FIG 4C
  % Cell Survival: 88.6957% and 107.684% and 93.9505%
[2]; Control, log (dose) [M] -5, 72 h
  Mean % Cell Survival: 106.931%
[2]; Control, log (dose) [M] -5.33, 72 h
  Mean % Cell Survival: 105.985%
[2]; Control, log (dose) [M] -5.66, 72 h
  Mean % Cell Survival: 104.52%
[2]; Control, log (dose) [M] -6, 72 h
  Mean % Cell Survival: 106.119%
[2]; Control, log (dose) [M] -6.33, 72 h
  Mean % Cell Survival: 109.784%
[2]; Control, log (dose) [M] -6.66, 72 h
  Mean % Cell Survival: 91.0498%
[2]; Control, log (dose) [M] -7, 72 h
  Mean % Cell Survival: 98.955%
[2]; Control, log (dose) [M] -7.33, 72 h
  Mean % Cell Survival: 98.8274%
[2]; Control, log (dose) [M] -7.66, 72 h
  Mean % Cell Survival: 108.09%
[2]; Control, log (dose) [M] -8, 72 h
  Mean % Cell Survival: 96.7766%
[2]; Control, log (dose) [M] -5
  % Cell Survival: 103.991% and 103.701% and 133.622%
[2]; Control, log (dose) [M] -5.33
  % Cell Survival: 95.6459% and 122.354% and 108.369%
[2]; Control, log (dose) [M] -5.66
  % Cell Survival: 83.672% and 98.7417% and 101.948%
[2]; Control, log (dose) [M] -6
  % Cell Survival: 86.9376% and 90.2295% and 99.9278%
[2]; Control, log (dose) [M] -6.33
  % Cell Survival: 101.524% and 93.2642% and 93.3622%
[2]; Control, log (dose) [M] -6.66
  % Cell Survival: 98.4035% and 102.221% and 102.958%
[2]; Control, log (dose) [M] -7
  % Cell Survival: 87.0827% and 92.5981% and 92.8571%
[2]; Control, log (dose) [M] -7.33
  % Cell Survival: 115.893% and 95.1147% and 114.069%
[2]; Control, log (dose) [M] -7.66
  % Cell Survival: 103.991% and 94.8187% and 102.958%
[2]; Control, log (dose) [M] -8
  % Cell Survival: 101.306% and 100.444% and 92.0635%
[3]; log (dose) [M] -5
  Mean % Cell Survival: 118.472%
[3]; log (dose) [M] -5.33
  Mean % Cell Survival: 98.5505%
[3]; log (dose) [M] -5.66
  Mean % Cell Survival: 115.47%
[3]; log (dose) [M] -6
  Mean % Cell Survival: 116.11%
[3]; log (dose) [M] -6.33
  Mean % Cell Survival: 114.215%
[3]; log (dose) [M] -6.66
  Mean % Cell Survival: 107.66%
[3]; log (dose) [M] -7
  Mean % Cell Survival: 100.361%
[3]; log (dose) [M] -7.33
  Mean % Cell Survival: 89.0589%
[3]; log (dose) [M] -7.66
  Mean % Cell Survival: 106.923%
[3]; log (dose) [M] -8
  Mean % Cell Survival: 100.292%

Source: PMC10257182, “Discovery of senolytics using machine learning” (Nature Communications, 2023)
